Measured values reported in PubChem BioAssay (NCI).
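Results reflect a 48-hour exposure of cells in 96-well plates to compound at five concentrations. The concentration for full growth arrest is given as TGI.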

Key:
Experiment in all cases: NCI tumour cell line growth inhibition, 48 h
SNB-75 CNS = system: SNB-75 CNS
SN12C renal = system: SN12C renal
SW-620 colon = system: SW-620 colon
CAKI-1 renal = system: CAKI-1 renal
ACHN renal = system: ACHN renal
HCT-15 colon = system: HCT-15 colon
DU-145 prostate = system: DU-145 prostate
LOX IMVI melanoma = system: LOX IMVI melanoma
SK-MEL-5 melanoma = system: SK-MEL-5 melanoma
NCI-H226 lung = system: NCI-H226 lung
NCI-H460 lung = system: NCI-H460 lung
786-0 renal = system: 786-0 renal
HCC-2998 colon = system: HCC-2998 colon
SF-539 CNS = system: SF-539 CNS
HOP-92 NSCLC = system: HOP-92 NSCLC
UACC-257 melanoma = system: UACC-257 melanoma
T-47D breast = system: T-47D breast
CCRF-CEM leukemia = system: CCRF-CEM leukemia
COLO 205 colon = system: COLO 205 colon
MOLT-4 leukemia = system: MOLT-4 leukemia
NCI-H522 lung = system: NCI-H522 lung
MDA-MB-435 = system: MDA-MB-435
HL-60(TB) leukemia = system: HL-60(TB) leukemia
U251 CNS = system: U251 CNS
BT-549 breast = system: BT-549 breast
A498 renal = system: A498 renal
SK-MEL-2 melanoma = system: SK-MEL-2 melanoma
RXF 393 renal = system: RXF 393 renal
OVCAR-3 ovarian = system: OVCAR-3 ovarian
M14 melanoma = system: M14 melanoma
HCT-116 colon = system: HCT-116 colon
IGROV1 ovarian = system: IGROV1 ovarian
UACC-62 melanoma = system: UACC-62 melanoma
MALME-3M melanoma = system: MALME-3M melanoma
SNB-19 CNS = system: SNB-19 CNS
SK-MEL-28 melanoma = system: SK-MEL-28 melanoma
TK-10 renal = system: TK-10 renal
KM12 colon = system: KM12 colon
HOP-62 NSCLC = system: HOP-62 NSCLC
PC-3 prostate = system: PC-3 prostate
MDA-MB-231 breast = system: MDA-MB-231 breast
K-562 leukemia = system: K-562 leukemia
NCI/ADR-RES ovarian = system: NCI/ADR-RES ovarian
EKVX NSCLC = system: EKVX NSCLC
SF-268 CNS = system: SF-268 CNS
MCF7 breast = system: MCF7 breast
OVCAR-5 ovarian = system: OVCAR-5 ovarian
RPMI-8226 leukemia = system: RPMI-8226 leukemia
OVCAR-4 ovarian = system: OVCAR-4 ovarian
HT29 colon = system: HT29 colon
SK-OV-3 ovarian = system: SK-OV-3 ovarian
OVCAR-8 ovarian = system: OVCAR-8 ovarian
HS 578T breast = system: HS 578T breast
UO-31 renal = system: UO-31 renal
A549 NSCLC = system: A549 NSCLC
SR leukemia = system: SR leukemia
MDA-N = system: MDA-N
SF-295 CNS = system: SF-295 CNS
NCI-H23 lung = system: NCI-H23 lung

For COC(=O)c1c(C)cccc1C1CN=NC12Cc1ccccc1C2=O (stereo not given), the TGI (SNB-75 CNS) was > 100 µM, the TGI (SN12C renal) was > 100 µM and the TGI (SW-620 colon) was > 100 µM. For the same compound, the TGI (CAKI-1 renal) was > 100 µM, the TGI (ACHN renal) was > 100 µM and the TGI (HCT-15 colon) was > 100 µM. For the same compound, the TGI (DU-145 prostate) was > 100 µM, the TGI (LOX IMVI melanoma) was > 100 µM and the TGI (SK-MEL-5 melanoma) was > 100 µM. For the same compound, the TGI (NCI-H226 lung) was > 100 µM, the TGI (NCI-H460 lung) was > 100 µM and the TGI (786-0 renal) was > 100 µM. The TGI (HCC-2998 colon) was > 100 µM, the TGI (SF-539 CNS) was > 100 µM and the TGI (HOP-92 NSCLC) was > 100 µM. For the same compound, the TGI (UACC-257 melanoma) was > 91.3 µM, the TGI (T-47D breast) was > 100 µM and the TGI (CCRF-CEM leukemia) was > 100 µM. For the same compound, the TGI (COLO 205 colon) was > 100 µM, the TGI (MOLT-4 leukemia) was > 100 µM and the TGI (NCI-H522 lung) was > 100 µM. The TGI (MDA-MB-435) was > 100 µM, the TGI (HL-60(TB) leukemia) was > 100 µM and the TGI (U251 CNS) was > 100 µM. For the same compound, the TGI (BT-549 breast) was > 100 µM, the TGI (A498 renal) was > 100 µM and the TGI (SK-MEL-2 melanoma) was > 100 µM. The TGI (RXF 393 renal) was > 100 µM, the TGI (OVCAR-3 ovarian) was > 100 µM and the TGI (M14 melanoma) was > 87.9 µM. The TGI (HCT-116 colon) was > 100 µM, the TGI (IGROV1 ovarian) was > 100 µM and the TGI (UACC-62 melanoma) was > 100 µM. For the same compound, the TGI (MALME-3M melanoma) was > 100 µM, the TGI (SNB-19 CNS) was > 100 µM and the TGI (SK-MEL-28 melanoma) was > 100 µM. The TGI (TK-10 renal) was > 100 µM, the TGI (KM12 colon) was > 100 µM and the TGI (HOP-62 NSCLC) was > 100 µM. For the same compound, the TGI (PC-3 prostate) was > 100 µM, the TGI (MDA-MB-231 breast) was > 100 µM and the TGI (K-562 leukemia) was > 100 µM. For the same compound, the TGI (NCI/ADR-RES ovarian) was > 100 µM, the TGI (EKVX NSCLC) was > 100 µM and the TGI (SF-268 CNS) was > 100 µM. For the same compound, the TGI (MCF7 breast) was > 43.8 µM, the TGI (OVCAR-5 ovarian) was > 100 µM and the TGI (RPMI-8226 leukemia) was > 100 µM. The TGI (OVCAR-4 ovarian) was > 100 µM, the TGI (HT29 colon) was > 100 µM and the TGI (SK-OV-3 ovarian) was > 100 µM. For the same compound, the TGI (OVCAR-8 ovarian) was > 100 µM, the TGI (HS 578T breast) was > 100 µM and the TGI (UO-31 renal) was > 100 µM. The TGI (A549 NSCLC) was > 100 µM, the TGI (SR leukemia) was > 100 µM and the TGI (MDA-N) was > 100 µM. For the same compound, the TGI (SF-295 CNS) was > 100 µM and the TGI (NCI-H23 lung) was > 100 µM.

CC1=NN(c2nc(N)nc(CBr)n2)C(C)(C)C1 showed a TGI (SNB-75 CNS) of 21.7 µM, a TGI (SN12C renal) of 20.5 µM and a TGI (SW-620 colon) of 12.7 µM. For the same compound, the TGI (CAKI-1 renal) was 3.06 µM, the TGI (ACHN renal) was 13.9 µM and the TGI (HCT-15 colon) was 16.6 µM. For the same compound, the TGI (DU-145 prostate) was 12.1 µM, the TGI (LOX IMVI melanoma) was 1.89 µM and the TGI (SK-MEL-5 melanoma) was 26.2 µM. It also gave a TGI (NCI-H226 lung) of 12.2 µM, a TGI (NCI-H460 lung) of 23.8 µM and a TGI (786-0 renal) of 1.78 µM. It also gave a TGI (HCC-2998 colon) of 30.6 µM, a TGI (SF-539 CNS) of 5.25 µM and a TGI (HOP-92 NSCLC) of 1.08 µM. It also gave a TGI (UACC-257 melanoma) of 25.2 µM, a TGI (T-47D breast) of 18 µM and a TGI (CCRF-CEM leukemia) of 0.983 µM. It also gave a TGI (COLO 205 colon) of 9.61 µM, a TGI (MOLT-4 leukemia) of 4.72 µM and a TGI (NCI-H522 lung) of 1.01 µM. The TGI (MDA-MB-435) was 27.8 µM, the TGI (U251 CNS) was 16.9 µM and the TGI (BT-549 breast) was 28.9 µM. The TGI (A498 renal) was 25.7 µM, the TGI (SK-MEL-2 melanoma) was 26.2 µM and the TGI (RXF 393 renal) was 12 µM. The TGI (OVCAR-3 ovarian) was 13.4 µM, the TGI (M14 melanoma) was 21.2 µM and the TGI (HCT-116 colon) was 17.4 µM. For the same compound, the TGI (IGROV1 ovarian) was 3.29 µM, the TGI (UACC-62 melanoma) was 21.7 µM and the TGI (MALME-3M melanoma) was 7.54 µM. For the same compound, the TGI (SNB-19 CNS) was 36.6 µM, the TGI (SK-MEL-28 melanoma) was 27.2 µM and the TGI (TK-10 renal) was 14.9 µM. It also gave a TGI (KM12 colon) of 23.5 µM, a TGI (HOP-62 NSCLC) of 35.1 µM and a TGI (PC-3 prostate) of 18 µM. For the same compound, the TGI (MDA-MB-231 breast) was 19.8 µM, the TGI (K-562 leukemia) was > 100 µM and the TGI (NCI/ADR-RES ovarian) was 45.4 µM. It also gave a TGI (EKVX NSCLC) of 15 µM, a TGI (SF-268 CNS) of 23 µM and a TGI (MCF7 breast) of 11.3 µM. It also gave a TGI (OVCAR-5 ovarian) of 13.8 µM, a TGI (RPMI-8226 leukemia) of 5.61 µM and a TGI (OVCAR-4 ovarian) of 20.6 µM. For the same compound, the TGI (HT29 colon) was 18.6 µM, the TGI (SK-OV-3 ovarian) was 38.7 µM and the TGI (OVCAR-8 ovarian) was 18.4 µM. For the same compound, the TGI (HS 578T breast) was 38.2 µM, the TGI (UO-31 renal) was 1.61 µM and the TGI (A549 NSCLC) was 37.1 µM. It also gave a TGI (SR leukemia) of 17.1 µM, a TGI (MDA-N) of 25.5 µM and a TGI (SF-295 CNS) of 24.8 µM. The TGI (NCI-H23 lung) was 29.9 µM.

For Cc1ccc(S(=O)(=O)N2CCN(S(=O)(=O)c3ccc(C)cc3)CCN(S(=O)(=O)c3ccc(C)cc3)Cc3cc(C#N)c(C#N)cc3CN(S(=O)(=O)c3ccc(C)cc3)CC2)cc1, the TGI (SNB-75 CNS) was > 100 µM, the TGI (SN12C renal) was > 100 µM and the TGI (SW-620 colon) was > 100 µM. For the same compound, the TGI (CAKI-1 renal) was > 100 µM, the TGI (ACHN renal) was > 100 µM and the TGI (HCT-15 colon) was > 100 µM. For the same compound, the TGI (DU-145 prostate) was > 100 µM, the TGI (LOX IMVI melanoma) was > 100 µM and the TGI (SK-MEL-5 melanoma) was > 100 µM. For the same compound, the TGI (NCI-H226 lung) was > 100 µM, the TGI (NCI-H460 lung) was > 100 µM and the TGI (786-0 renal) was > 100 µM. For the same compound, the TGI (HCC-2998 colon) was > 100 µM, the TGI (SF-539 CNS) was > 100 µM and the TGI (HOP-92 NSCLC) was 89.3 µM. For the same compound, the TGI (UACC-257 melanoma) was > 100 µM, the TGI (T-47D breast) was > 100 µM and the TGI (CCRF-CEM leukemia) was > 100 µM. For the same compound, the TGI (COLO 205 colon) was > 100 µM, the TGI (MOLT-4 leukemia) was > 100 µM and the TGI (NCI-H522 lung) was > 100 µM. For the same compound, the TGI (MDA-MB-435) was > 100 µM, the TGI (HL-60(TB) leukemia) was > 100 µM and the TGI (U251 CNS) was > 100 µM. The TGI (BT-549 breast) was > 100 µM, the TGI (A498 renal) was 58.2 µM and the TGI (RXF 393 renal) was > 100 µM. For the same compound, the TGI (OVCAR-3 ovarian) was > 100 µM, the TGI (M14 melanoma) was 89.1 µM and the TGI (HCT-116 colon) was > 100 µM. For the same compound, the TGI (IGROV1 ovarian) was > 100 µM, the TGI (UACC-62 melanoma) was > 100 µM and the TGI (MALME-3M melanoma) was > 100 µM. For the same compound, the TGI (SNB-19 CNS) was > 100 µM, the TGI (SK-MEL-28 melanoma) was > 100 µM and the TGI (TK-10 renal) was > 100 µM. For the same compound, the TGI (KM12 colon) was > 100 µM, the TGI (HOP-62 NSCLC) was > 100 µM and the TGI (PC-3 prostate) was > 100 µM. The TGI (MDA-MB-231 breast) was > 100 µM, the TGI (K-562 leukemia) was > 100 µM and the TGI (NCI/ADR-RES ovarian) was > 100 µM. The TGI (EKVX NSCLC) was > 100 µM, the TGI (SF-268 CNS) was > 100 µM and the TGI (MCF7 breast) was > 100 µM. For the same compound, the TGI (OVCAR-5 ovarian) was > 100 µM, the TGI (RPMI-8226 leukemia) was > 100 µM and the TGI (OVCAR-4 ovarian) was > 100 µM. The TGI (HT29 colon) was > 100 µM, the TGI (SK-OV-3 ovarian) was > 100 µM and the TGI (OVCAR-8 ovarian) was > 100 µM. For the same compound, the TGI (HS 578T breast) was > 100 µM, the TGI (UO-31 renal) was > 100 µM and the TGI (A549 NSCLC) was > 100 µM. The TGI (SR leukemia) was > 100 µM, the TGI (MDA-N) was > 100 µM and the TGI (SF-295 CNS) was > 100 µM. For the same compound, the TGI (NCI-H23 lung) was > 100 µM.
